Measurements as given in US12403137B2, “Compounds and methods of use” (Tango Therapeutics, Inc., priority 2019, dated 2025).

What was measured:
[1] = system: HAP1 MTAP-deleted cell line; test: SDMA in-cell western assay, HAP1 MTAP-deleted; type: cell-based; details: for IC50: Homo sapiens, HAP1 MTAP-deleted (MTAP-null) cell line; for MTAP Intact/Deleted Ratio: IC50 ratio HAP1 MTAP-intact / HAP1 MTAP-deleted, >=3 fold considered MTAP-selective
Method: (§1) Table 1 also indicates IC50 values in an MTAP-isogenic cell line pair for exemplary compounds in an SDMA in-cell western assay (columns 7-8). HAP1 MTAP-intact is a cell line in which endogenous levels of MTAP are expressed, and HAP1 MTAP-deleted is an MTAP-null cell line. For Table 1, “a*” and “aa*” indicates an IC50 of <1 μM, “b*” and “bb*” indicates an IC50 equal to or greater than 1 μM but less than 10 μM, and “c*” and “cc*” indicates an IC50 of greater than or equal to 10 μM in the HAP1 MTAP-intact and the HAP1 MTAP-deleted assays, respectively. In column 9, “A*” indicates an IC50 ratio greater than or equal to 10 fold between the IC50 in the HAP1 MTAP-intact cell line and the HAP1 MTAP-deleted cell line; “B*” indicates an IC50 ratio greater than or equal to 3 fold but lower than 10 fold between the IC50 in the HAP1 MTAP-intact cell line and the HAP1 MTAP-deleted cell line; “C*” indicates an IC50 ratio of less than 3 fold between the IC50 in the HAP1 MTAP-intact cell line and the HAP1 MTAP-deleted cell line. Compounds with a ratio in the SDMA in-cell western assay of equal to or greater than 3 fold are considered MTAP-selective.

[2] = target: T1, PRMT5 (Homo sapiens, UniProt O14744); test: PRMT5 inhibition assay with MTA as cofactor; type: biochemical; details: for IC50: against PRMT5 with MTA as cofactor; for SAM/MTA Ratio: ratio of Ki in the presence of SAM to Ki in the presence of MTA, Ki=IC50/1.5 (SAM), Ki=IC50/13.5 (MTA)
T1 construct: purchased Viva (custom protein)
Description: (§2) The Ki values can be calculated from the IC50 values as described in the Examples section. As detailed in the Examples section, for the assay performed in the presence of SAM, IC50=Ki×1.5 (Ki=IC50/1.5). For the assay performed in the presence of MTA, IC50=Ki×13.5 (Ki=IC50/13.5). Column 6 indicates the ratio between the Ki of compounds in the presence of SAM and the Ki of compounds in the presence of MTA

[3] = target: T1, PRMT5; test: PRMT5 inhibition assay with no cofactor; type: biochemical; details: against PRMT5 with no cofactor; read-out: No Co-factor IC50
[4] = system: HAP1 MTAP-intact cell line; test: SDMA in-cell western assay, HAP1 MTAP-intact; type: cell-based; details: Homo sapiens
Method: as §1

[5] = target: T1, PRMT5; test: PRMT5 inhibition assay with SAM as cofactor; type: biochemical; details: against PRMT5 in the presence of SAM as cofactor
Description: as §2

T1 sequence (O14744 whole entry): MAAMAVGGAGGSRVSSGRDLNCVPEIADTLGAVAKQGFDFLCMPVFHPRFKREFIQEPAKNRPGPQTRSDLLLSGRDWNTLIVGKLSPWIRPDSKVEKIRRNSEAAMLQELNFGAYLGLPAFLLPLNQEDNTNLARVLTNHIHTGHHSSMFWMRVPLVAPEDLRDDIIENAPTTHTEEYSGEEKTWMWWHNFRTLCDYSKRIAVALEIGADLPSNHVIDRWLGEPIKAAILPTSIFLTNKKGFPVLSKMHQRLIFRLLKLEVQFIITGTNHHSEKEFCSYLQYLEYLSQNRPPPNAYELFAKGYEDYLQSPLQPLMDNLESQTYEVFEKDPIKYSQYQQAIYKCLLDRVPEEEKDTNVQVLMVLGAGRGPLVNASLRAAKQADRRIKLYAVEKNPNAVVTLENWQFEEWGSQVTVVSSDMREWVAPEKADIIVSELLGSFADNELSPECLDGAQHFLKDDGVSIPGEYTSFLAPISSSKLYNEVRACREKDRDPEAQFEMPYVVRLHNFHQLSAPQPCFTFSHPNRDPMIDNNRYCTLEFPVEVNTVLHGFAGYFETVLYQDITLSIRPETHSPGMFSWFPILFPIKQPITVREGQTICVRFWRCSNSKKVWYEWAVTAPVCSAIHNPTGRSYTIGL
T1 sequence (Q9BQA1 whole entry partner): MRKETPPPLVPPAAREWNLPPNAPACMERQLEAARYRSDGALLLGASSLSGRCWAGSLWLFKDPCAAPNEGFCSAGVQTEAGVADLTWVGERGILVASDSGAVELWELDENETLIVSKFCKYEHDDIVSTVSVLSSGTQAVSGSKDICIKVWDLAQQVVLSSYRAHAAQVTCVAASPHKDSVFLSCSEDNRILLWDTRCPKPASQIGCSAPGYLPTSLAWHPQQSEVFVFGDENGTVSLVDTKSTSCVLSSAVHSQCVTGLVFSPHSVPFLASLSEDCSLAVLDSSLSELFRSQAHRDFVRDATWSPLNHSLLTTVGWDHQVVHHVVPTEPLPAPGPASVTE

Compound	IC50 [1]	IC50 [2]	IC50 [3]	IC50 [4]	IC50 [5]	MTAP Intact/Deleted Ratio [1]	SAM/MTA Ratio [2]
CC(=O)N1CCC(Nc2cc(C(=O)NC[C@@H](O)[C@@H]3Cc4ccc(OCc5ocnc5C)cc4CN3)cc(N3CCN(C)CC3)n2)CC1 [Compound 54, 2-[(1-acetyl-4-piperidyl)amino]-N-[(2R)-2-hydroxy-2-[(3S)-7-[(4-methyloxazol-5-yl)methoxy]-1,2,3,4-tetrahydroisoquinolin-3-yl]ethyl]-6-(4-methylpiperazin-1-yl)pyridine-4-carboxamide]	1 to 10 µM	< 0.05 µM	0.05 to 0.5 µM	≥ 10 µM	0.05 to 0.5 µM	C* (an IC50 ratio of less than 3 fold between the IC50 in the HAP1 MTAP-intact cell line and the HAP1 MTAP-deleted cell line)	A (a Ki ratio greater than or equal to 10 fold between the Ki in the presence of SAM and the Ki in the presence of MTA)
Cc1ncoc1COc1ccc2c(c1)CN[C@H]([C@H](O)CNC(=O)c1cc(NC3CCC3)nc(N3CCCCC3)n1)C2 [Compound 49, 6-(cyclobutylamino)-N-[(2R)-2-hydroxy-2-[(3S)-7-[(4-methyloxazol-5-yl)methoxy]-1,2,3,4-tetrahydroisoquinolin-3-yl]ethyl]-2-(1-piperidyl)pyrimidine-4-carboxamide]	< 1 µM	< 0.05 µM	0.05 to 0.5 µM	1 to 10 µM	0.05 to 0.5 µM	A* (an IC50 ratio greater than or equal to 10 fold between the IC50 in the HAP1 MTAP-intact cell line and the HAP1 MTAP-deleted cell line)	A (a Ki ratio greater than or equal to 10 fold between the Ki in the presence of SAM and the Ki in the presence of MTA)
CCOc1cc(C(=O)N2[C@@H]3CCC[C@H]2COC3)ccc1C(=O)NC[C@@H](O)[C@@H]1Cc2ccc(OCc3ccnn3C)cc2CN1 [Compound 6, 4-((1R,5S)-3-oxa-9-azabicyclo[3.3.1]nonane-9-carbonyl)-2-ethoxy-N—((R)-2-hydroxy-2-((S)-7-((1-methyl-1H-pyrazol-5-yl)methoxy)-1,2,3,4-tetrahydroisoquinolin-3-yl)ethyl)benzamide]	< 1 µM	0.05 to 0.5 µM	0.5 to 5 µM	< 1 µM	0.05 to 0.5 µM	C* (an IC50 ratio of less than 3 fold between the IC50 in the HAP1 MTAP-intact cell line and the HAP1 MTAP-deleted cell line)	A (a Ki ratio greater than or equal to 10 fold between the Ki in the presence of SAM and the Ki in the presence of MTA)
Cc1ncoc1COc1ccc2c(c1)CN[C@H]([C@H](O)CNC(=O)c1cc(NC3CCC3)nc(N3CCN(C(C)C)CC3)c1)C2 [Compound 30, 2-(cyclobutylamino)-N—((R)-2-hydroxy-2-((S)-7-((4-methyloxazol-5-yl)methoxy)-1,2,3,4-tetrahydroisoquinolin-3-yl)ethyl)-6-(4-isopropylpiperazin-1-yl)isonicotinamide]	≥ 10 µM	< 0.05 µM	0.05 to 0.5 µM	≥ 10 µM	0.05 to 0.5 µM	C* (an IC50 ratio of less than 3 fold between the IC50 in the HAP1 MTAP-intact cell line and the HAP1 MTAP-deleted cell line)	A (a Ki ratio greater than or equal to 10 fold between the Ki in the presence of SAM and the Ki in the presence of MTA)
COCCN(C)c1nc(NC2COC2)cc(C(=O)NC[C@@H](O)[C@@H]2Cc3ccc(OCc4ocnc4C)cc3CN2)n1 [Compound 37, N—((R)-2-hydroxy-2-((S)-7-((4-methyloxazol-5-yl)methoxy)-1,2,3,4-tetrahydroisoquinolin-3-yl)ethyl)-2-((2-methoxyethyl)(methyl)amino)-6-(oxetan-3-ylamino)pyrimidine-4-carboxamide]		0.5 to 5 µM	≥ 5 µM		0.5 to 5 µM		A (a Ki ratio greater than or equal to 10 fold between the Ki in the presence of SAM and the Ki in the presence of MTA)
Cc1ncoc1COc1ccc2c(c1)CN[C@H]([C@H](O)CNC(=O)c1cc(NC3CCC3)nc(C3CCN(C(C)C)CC3)c1)C2 [Compound 78]	< 1 µM	< 0.05 µM	0.05 to 0.5 µM	1 to 10 µM		A* (an IC50 ratio greater than or equal to 10 fold between the IC50 in the HAP1 MTAP-intact cell line and the HAP1 MTAP-deleted cell line)	
CCCN(C)c1nc(NC2COC2)cc(C(=O)NC[C@@H](O)[C@@H]2Cc3ccc(OCc4ocnc4C)cc3CN2)n1 [Compound 38, N—((R)-2-hydroxy-2-((S)-7-((4-methyloxazol-5-yl)methoxy)-1,2,3,4-tetrahydroisoquinolin-3-yl)ethyl)-2-(methyl(propyl)amino)-6-(oxetan-3-ylamino)pyrimidine-4-carboxamide]		0.5 to 5 µM	≥ 5 µM		0.5 to 5 µM		A (a Ki ratio greater than or equal to 10 fold between the Ki in the presence of SAM and the Ki in the presence of MTA)
Cc1ncoc1COc1ccc2c(c1)CN[C@H]([C@H](O)CNC(=O)c1cc(NC3CC4(CCC4)C3)nc(N3CCN(C(C)C)CC3)c1)C2 [Compound 70]	< 1 µM	< 0.05 µM	< 0.05 µM	< 1 µM		B* (an IC50 ratio greater than or equal to 3 fold but lower than 10 fold between the IC50 in the HAP1 MTAP-intact cell line and the HAP1 MTAP-deleted cell line)	

Further lines, with some results ahead:

IC50 [1]	IC50 [2]	IC50 [3]	IC50 [4]	IC50 [5]	Compound	MTAP Intact/Deleted Ratio [1]	SAM/MTA Ratio [2]
< 1 µM	< 0.05 µM	0.05 to 0.5 µM	1 to 10 µM	0.05 to 0.5 µM	Cc1ncoc1COc1ccc2c(c1)CN[C@H]([C@H](O)CNC(=O)c1cccc(NC3CCC3)c1)C2 [Compound 28, 3-(cyclobutylamino)-N—((R)-2-hydroxy-2-((S)-7-((4-methyloxazol-5-yl)methoxy)-1,2,3,4-tetrahydroisoquinolin-3-yl)ethyl)benzamide]	A* (an IC50 ratio greater than or equal to 10 fold between the IC50 in the HAP1 MTAP-intact cell line and the HAP1 MTAP-deleted cell line)	A (a Ki ratio greater than or equal to 10 fold between the Ki in the presence of SAM and the Ki in the presence of MTA)
1 to 10 µM	< 0.05 µM	0.05 to 0.5 µM	≥ 10 µM	0.05 to 0.5 µM	Cc1ncoc1COc1ccc2c(c1)CN[C@H]([C@H](O)CNC(=O)c1ccnc(Nc3cccnc3)c1)C2 [Compound 34, N—((R)-2-hydroxy-2-((S)-7-((4-methyloxazol-5-yl)methoxy)-1,2,3,4-tetrahydroisoquinolin-3-yl)ethyl)-2-(pyridin-3-ylamino)isonicotinamide]	B* (an IC50 ratio greater than or equal to 3 fold but lower than 10 fold between the IC50 in the HAP1 MTAP-intact cell line and the HAP1 MTAP-deleted cell line)	A (a Ki ratio greater than or equal to 10 fold between the Ki in the presence of SAM and the Ki in the presence of MTA)
< 1 µM	< 0.05 µM	0.5 to 5 µM	≥ 10 µM		Cc1ncoc1COc1cc2c(cc1F)C[C@@H]([C@H](O)CNC(=O)c1ccnc(NC3CCC3)c1)NC2 [Compound 65, 2-(cyclobutylamino)-N-[(2R)-2-[(3S)-6-fluoro-7-[(4-methyloxazol-5-yl)methoxy]-1,2,3,4-tetrahydroisoquinolin-3-yl]-2-hydroxy-ethyl]pyridine-4-carboxamide]	A* (an IC50 ratio greater than or equal to 10 fold between the IC50 in the HAP1 MTAP-intact cell line and the HAP1 MTAP-deleted cell line)	
< 1 µM	< 0.05 µM	0.05 to 0.5 µM	≥ 10 µM		COCCN(C)c1cc(C(=O)NC[C@@H](O)[C@@H]2Cc3ccc(OCc4ocnc4C)cc3CN2)cc(NC2CCN(C(C)=O)CC2)n1 [Compound 66]	A* (an IC50 ratio greater than or equal to 10 fold between the IC50 in the HAP1 MTAP-intact cell line and the HAP1 MTAP-deleted cell line)	
< 1 µM	< 0.05 µM	0.05 to 0.5 µM	≥ 10 µM		COCCN(C)c1nc(NC2CN(C(C)=O)C2)cc(C(=O)NC[C@@H](O)[C@@H]2Cc3ccc(OCc4ocnc4C)cc3CN2)n1 [Compound 82]	A* (an IC50 ratio greater than or equal to 10 fold between the IC50 in the HAP1 MTAP-intact cell line and the HAP1 MTAP-deleted cell line)	
